Source: article doi:10.1101/2022.03.28.485913v1, “A unified in vitro to in vivo fluorescence lifetime screening platform yields amyloid β aggregation inhibitors” (biorxiv, 2022)

What was measured:
amyloid β (1-42) (Aβ42) [1] = target: T1, amyloid β (1-42) (Aβ42) (Homo sapiens, UniProt P05067); experiment: nanoFLIM aggregation assay, TEM; assay type: biochemical; settings: 10 μM Aβ42-488, 50% labelled, 10 or 50 μM compound; ThT assay masked by compound fluorescence
T1 construct: gene APP; Amyloid-beta 1-42 peptide cut from APP, 42 residues; synthetic, unlabelled or partly mixed with N-terminally HiLyte Fluor 488 labelled peptide; recombinant 15N peptide (AlexoTech) for NMR; aggregating, starting from monomer

amyloid β (1-42) (Aβ42) [2] = target: T1, amyloid β (1-42) (Aβ42); experiment: nanoFLIM aggregation kinetics, fluorescence lifetime in microfluidic droplets, initial rates; assay type: biochemical

T1 sequence (P05067 672-713): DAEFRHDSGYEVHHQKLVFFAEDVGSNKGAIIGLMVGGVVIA

Row | Compound | nanoFLIM aggregation assay, TEM (amyloid β (1-42) (Aβ42) [1]) | IC50 (amyloid β (1-42) (Aβ42) [2]) [µM]
1 | O=C(O)c1cc(-c2cc(F)cc(Cl)c2)nc2ccccc12 [MJ042] | MJ001 and MJ042 (Fig. 2a,b), showed weaker, yet significant inhibitory activity | –
2 | COC(=O)c1ccccc1NC(=O)c1cc(-c2ccccc2)nc2ccccc12 [MJ001] | MJ001 and MJ042 (Fig. 2a,b), showed weaker, yet significant inhibitory activity | –
3 | O=C(O)c1cc(-c2cccc(Br)c2)nc2ccc([N+](=O)[O-])cc12 [MJ040] | – | 4.3 ± 1.3
